The values that follow come from patent publication US20080194574A1, “Pyrazine Derivatives As Effective Compounds Against Infectious Diseases” (AXXIMA PHARMACEUTICALS AG, priority 2003, published 2008).

The target of the first test is T1, viral kinase pUL-97 (Human cytomegalovirus, UniProt P16788).
T1 construct: The pUL-97 gene was cloned into a baculovirus vector; GST (glutathione S-transferase) (N); made in house; host or cells: Sf9 insect cells, baculovirus
T1 sequence (P16788 whole entry): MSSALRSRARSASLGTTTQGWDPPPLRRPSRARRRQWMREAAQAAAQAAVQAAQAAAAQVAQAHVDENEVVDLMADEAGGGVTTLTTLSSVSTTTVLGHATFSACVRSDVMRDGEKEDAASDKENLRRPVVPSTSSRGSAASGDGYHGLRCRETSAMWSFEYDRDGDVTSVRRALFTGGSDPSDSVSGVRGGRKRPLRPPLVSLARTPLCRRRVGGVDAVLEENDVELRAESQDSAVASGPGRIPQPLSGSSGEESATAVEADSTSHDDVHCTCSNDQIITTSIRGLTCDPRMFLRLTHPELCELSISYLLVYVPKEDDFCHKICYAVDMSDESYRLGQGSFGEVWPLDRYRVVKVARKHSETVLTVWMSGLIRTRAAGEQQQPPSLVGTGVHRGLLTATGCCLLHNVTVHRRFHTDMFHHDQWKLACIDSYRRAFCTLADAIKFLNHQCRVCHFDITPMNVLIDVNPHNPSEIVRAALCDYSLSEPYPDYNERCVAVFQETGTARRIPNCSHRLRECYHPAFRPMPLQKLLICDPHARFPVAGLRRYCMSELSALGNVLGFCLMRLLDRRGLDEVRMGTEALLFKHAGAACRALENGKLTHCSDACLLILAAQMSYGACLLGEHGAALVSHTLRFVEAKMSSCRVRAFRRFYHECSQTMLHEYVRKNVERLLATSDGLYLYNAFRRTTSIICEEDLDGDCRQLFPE
In words: UL97 kinase assay on Immobilon plate. The conditions noted are these: inhibition of UL 97 kinase activity; class by IC50 / % inhibition at 10 μM or 100 μM; read-out: Activity Class [A, B, C]. The class given is biochemical. A digest of the protocol: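 GST-pUL97 from baculovirus-infected Sf9 cells phosphorylated myelin basic protein with ATP (3 μM in the added assay buffer) and γ-[33P]ATP in Tris-HCl pH 7.5 buffer with MnCl2 and DTT. Reaction ran 1 h at 30 °C with graded compound concentrations and was stopped with EDTA. 33P incorporation was measured by scintillation after filter capture and phosphoric acid washes.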
Consider `c1ccc(N2CCN(c3cncc(-c4ccsc4)n3)CC2)nc1` [compound 350, 4-Pyridin-2-yl-6′-thiophen-3-yl-3,4,5,6-tetrahydro-2H-[1,2′]bipyrazinyl], for which the IC50 lay in the range of 1 to 10 µM.
Same read-out and setting: to `CC(=O)c1ccccc1-c1cncc(N2CCN(c3cccc(Cl)c3)CC2)n1` [compound 236, 1-{2-[4-(3-Chloro-phenyl)-3,4,5,6-tetrahydro-2H-[1,2′]bipyrazinyl-6′-yl]-phenyl}-ethanone] belongs 10 to 100 µM.
In the case of `Fc1ccc(N2CCN(c3cncc(-c4ccc(-c5ccccc5)c(F)c4)n3)CC2)cc1` [compound 268, 6′-(2-Fluoro-biphenyl-4-yl)-4-(4-fluoro-phenyl)-3,4,5,6-tetrahydro-2H-[1,2′]bipyrazinyl], the IC50 lay in the range of 10 to 100 µM.
With `CC(=O)c1ccc(-c2cncc(N3CCN(c4cccc(C)c4C)CC3)n2)s1` [compound 296, 1-{5-[4-(2,3-Dimethyl-phenyl)-3,4,5,6-tetrahydro-2H-[1,2′]bipyrazinyl-6′-yl]-thiophen-2-yl}-ethanone], the IC50 lay within 10 to 100 µM.
Take `CC(=O)c1ccc(-c2cncc(N3CCN(c4ccc(F)cc4F)CC3)n2)cc1` [compound 275, 1-{4-[4-(2,4-Difluoro-phenyl)-3,4,5,6-tetrahydro-2H-[1,2′]bipyrazinyl-6′-yl]-phenyl}-ethanone]: the IC50 lay in the range of 1 to 10 µM.
`COc1ccccc1N1CCN(c2cncc(-c3ccc(C)cc3)n2)CC1` [compound 241, 4-(2-Methoxy-phenyl)-6′-p-tolyl-3,4,5,6-tetrahydro-2H-[1,2′]bipyrazinyl]: the IC50 was 10 to 100 µM.
Consider `OCc1ccc(-c2cncc(N3CCN(c4ccc(Cl)c(Cl)c4)CC3)n2)cc1` [compound 315, {4-[4-(3,4-Dichloro-phenyl)-3,4,5,6-tetrahydro-2H-[1,2′]bipyrazinyl-6′-yl]-phenyl}-methanol], for which the IC50 lay in the range of 1 to 10 µM.
For the compound `Clc1ccc(N2CCN(c3cncc(-c4csc5ccccc45)n3)CC2)cc1` [compound 326, 6′-Benzo[b]thiophen-3-yl-4-(4-chloro-phenyl)-3,4,5,6-tetrahydro-2H-[1,2′]bipyrazinyl], the IC50 was in the range of 1 to 10 µM.
In the case of `FC(F)(F)c1cccc(N2CCN(c3cncc(-c4ccoc4)n3)CC2)c1` [compound 255, 6′-Furan-3-yl-4-(3-trifluoromethyl-phenyl)-3,4,5,6-tetrahydro-2H-[1,2′]bipyrazinyl], the IC50 is 10 to 100 µM.

Staying with this test, now noted: inhibition of UL 97 kinase activity; class by IC50 / % inhibition at 10 or 100 μM; read-out: Activity Class [A, B, C].
Take `Cc1ccc(N2CCN(c3cncc(-c4cc(C)cc(C)c4)n3)CC2)cc1` [compound 177, 6′-(3,5-Dimethyl-phenyl)-4-p-tolyl-3,4,5,6-tetrahydro-2H-[1,2′]bipyrazinyl]: the IC50 lay in the range of 10 to 100 µM.
Consider `Clc1cccc(N2CCN(c3cncc(-c4ccoc4)n3)CC2)c1` [compound 84, 4-(3-Chloro-phenyl)-6′-furan-3-yl-3,4,5,6-tetrahydro-2H-[1,2′]bipyrazinyl], for which the IC50 is 1 to 10 µM.
Turning to `COc1ccccc1N1CCN(c2cncc(-c3ccc(C(N)=O)cc3)n2)CC1` [compound 104, 4-[4-(2-Methoxy-phenyl)-3,4,5,6-tetrahydro-2H-[1,2′]bipyrazinyl-6′-yl]-benzamide], the IC50 is < 1 µM.
In the case of `Cc1cccc(-c2cncc(N3CCN(c4cccc(C(F)(F)F)c4)CC3)n2)c1` [compound 154, 6′-m-Tolyl-4-(3-trifluoromethyl-phenyl)-3,4,5,6-tetrahydro-2H-[1,2′]bipyrazinyl], the IC50 fell in the range of 10 to 100 µM.
As to `NC(=O)c1ccc(-c2cncc(NCc3ccccc3)n2)cc1` [compound 28, 4-(6-Benzylamino-pyrazin-2-yl)-benzamide], the IC50 is < 1 µM.
Consider `OCC1CCCN1c1cncc(-c2cc3ccccc3o2)n1` (stereo not shown) [compound 24, [1-(6-Benzofuran-2-yl-pyrazin-2-yl)-pyrrolidin-2-yl]-methanol], for which the IC50 was 1 to 10 µM.
As for `CCOc1ccccc1-c1cncc(N2CCN(c3ccc(C)cc3)CC2)n1` [compound 175, 6′-(2-Ethoxy-phenyl)-4-p-tolyl-3,4,5,6-tetrahydro-2H-[1,2′]bipyrazinyl], the IC50 is 10 to 100 µM.
